Measured values published in patent US10233483B2, “Methods of targeted antibiotic susceptibility testing” (Qvella Corporation, priority 2013, dated 2019).

Experiments:
[1] = tested on: Klebsiella pneumoniae; test: Antimicrobial sensitivity testing of bacteria in partially lysed then enriched whole blood, real-time RT-PCR of rRNA and tmRNA; assay type: cell-based; conditions: 8 ug/mL final concentration, 2 hours incubation at 37° C. after 2 hours pre-incubation, K. pneumoniae spiked whole blood enriched with TSB
Experimental: Unless any variation is specified, the following example pretreatment procedure which includes blood cell lysis step followed by 4 wash cycles was performed in experiments which required pretreatment of blood samples. 10 μL of Fluorinert™ was added to 2 mL siliconized microcentrifuge tubes (T3531, Sigma), followed by the addition of 500 μL of the blood cell lysis reagent. The blood cell lysis reagent consisted of 75 mg/mL saponin, 15 mg/mL SPS and 1% PPG. EDTA-treated human whole blood from healthy volunteers of 1 mL spiked with microbial cells was added to the tube containing the blood cell lysis reagent and the Fluorinert™, and mixed by inverting ten times and vortexing at low speeds for 10 sec. The final concentrations of the components in the mixture were 25 mg/mL saponin, 5 mg/mL SPS and 0.33% PPG. The tubes were centrifuged at 12,000 rpm for 1 min and 1.35 mL of the supernatant was removed, leaving 150 uL of the liquid supernatant, Fluorinert™ and the sedimented microbial I cells. The first wash cycles was performed by adding 1.35 mL of 0.8 mM phosphate buffer to the remaining liquid supernatant of 150 uL as described above, mixing by vortexing at low speed for 10 sec, centrifugation at 12,000 rpm for 1 min and removal of 1.35 mL of the supernatant, leaving 150 μL of the liquid supernatant, the Fluorinert™ and the sedimented microbial. […]

[2] = tested on: E. coli; test: DnaK mRNA level after heat-shock induction in bacteria exposed to antibiotic, real-time RT-PCR; assay type: cell-based, Escherichia coli; conditions: 4 or 8 ug/mL, 120 min at 37° C. in LB broth, heat-shock 42° C. 3 min before E-lysis
Experimental: Unless any variation was specified, RT-PCR reaction of 5 μL volume was prepared by mixing 1 μL of sample, 1 μL of Kapa 2G Robust Hotstart 5× buffer (KK5517, KAPA Biosystems), 0.05 μL of Kapa 2G Robust Hotstart DNA polymerase (kk5517, KAPA Biosystems), 0.2 μL of reverse transcriptase (GoScript, A5004 Promega), 0.04 uL of 100 mM dNTPs (10297-117, Life Technologies), 0.25 uL of DMSO, 0.13 uL of SYBR Green (1/375 dilution, S7563 Invitrogen), 0.5 μL each of respective forward and reverse primers (2.5 μM) and 1.34 μL of RNAase free water. In indicated experiments, for PCR reaction of 5 μL volume the composition was the same as RT-PCR reaction except 0.2 μL of RNAase free water was added instead of reverse transcriptase. Real time RT-PCR targeting rRNA or tmRNA was performed by reverse transcription at 50° C. for 5 min, inactivation of reverse transcriptase and activation of hotstart DNA polymerase at 97° C. for 5 min, followed by 35 to 40 cycles of cDNA amplification (denaturation at 95° C. for 5 sec, annealing at 63° for 7 sec, and extension at 72° C. for 10 sec) in Eco Real Time PCR system (Illumina) using a double stranded DNA binding fluorescent dye, SYBR Green. […]
As it is observed, the exposure of microbial cells to the antibiotic norfloxacin reduced the quantity of target mRNA by approximately 8-16 times (corresponding to 3-4 PCR cycles).

CCn1cc(C(=O)O)c(=O)c2cc(F)c(N3CCNCC3)cc21 [norfloxacin]
rRNA and tmRNA RT-PCR signal in response to the antibiotic compared to without antibiotic (Non-treated) culture [1]: reduction of rRNA and tmRNA | reduction of target mRNA (DnaK) signal in PCR cycles after exposure to the antibiotic [2]: 3-4 PCR cycles | reduction of the quantity of target mRNA (DnaK) after exposure to the antibiotic [2]: 8-16 times
